Results from ChEMBL document CHEMBL2073901, “Enhancement of doxorubicin activity in multidrug-resistant cells by mefloquine” (Methods Find Exp Clin Pharmacol, 2000).

Experiments:
[1] = molecular target: T1, ATP-dependent translocase ABCB1 (Homo sapiens, UniProt P08183); assay: TP_TRANSPORTER: inhibition of Azidopine photoaffinity labelling (Azidopine: 0.1 uM, Mefloquine: 10 uM) in membranes from K562/DOX cells; format: functional, cell membranes, Membrane; conditions: k562/adr
[2] = molecular target: T1, ATP-dependent translocase ABCB1; assay: TP_TRANSPORTER: increase in Rhodamine 123 intracellular accumulation (R123: 10 uM, Mefloquine: 10 uM) in K562/DOX cells; format: functional, cell-based; conditions: k562/adr
[3] = molecular target: T1, ATP-dependent translocase ABCB1; assay: TP_TRANSPORTER: intracellular accumulation in K562 and K562/DXR cells; format: functional, cell-based

T1 sequence (P08183 whole entry): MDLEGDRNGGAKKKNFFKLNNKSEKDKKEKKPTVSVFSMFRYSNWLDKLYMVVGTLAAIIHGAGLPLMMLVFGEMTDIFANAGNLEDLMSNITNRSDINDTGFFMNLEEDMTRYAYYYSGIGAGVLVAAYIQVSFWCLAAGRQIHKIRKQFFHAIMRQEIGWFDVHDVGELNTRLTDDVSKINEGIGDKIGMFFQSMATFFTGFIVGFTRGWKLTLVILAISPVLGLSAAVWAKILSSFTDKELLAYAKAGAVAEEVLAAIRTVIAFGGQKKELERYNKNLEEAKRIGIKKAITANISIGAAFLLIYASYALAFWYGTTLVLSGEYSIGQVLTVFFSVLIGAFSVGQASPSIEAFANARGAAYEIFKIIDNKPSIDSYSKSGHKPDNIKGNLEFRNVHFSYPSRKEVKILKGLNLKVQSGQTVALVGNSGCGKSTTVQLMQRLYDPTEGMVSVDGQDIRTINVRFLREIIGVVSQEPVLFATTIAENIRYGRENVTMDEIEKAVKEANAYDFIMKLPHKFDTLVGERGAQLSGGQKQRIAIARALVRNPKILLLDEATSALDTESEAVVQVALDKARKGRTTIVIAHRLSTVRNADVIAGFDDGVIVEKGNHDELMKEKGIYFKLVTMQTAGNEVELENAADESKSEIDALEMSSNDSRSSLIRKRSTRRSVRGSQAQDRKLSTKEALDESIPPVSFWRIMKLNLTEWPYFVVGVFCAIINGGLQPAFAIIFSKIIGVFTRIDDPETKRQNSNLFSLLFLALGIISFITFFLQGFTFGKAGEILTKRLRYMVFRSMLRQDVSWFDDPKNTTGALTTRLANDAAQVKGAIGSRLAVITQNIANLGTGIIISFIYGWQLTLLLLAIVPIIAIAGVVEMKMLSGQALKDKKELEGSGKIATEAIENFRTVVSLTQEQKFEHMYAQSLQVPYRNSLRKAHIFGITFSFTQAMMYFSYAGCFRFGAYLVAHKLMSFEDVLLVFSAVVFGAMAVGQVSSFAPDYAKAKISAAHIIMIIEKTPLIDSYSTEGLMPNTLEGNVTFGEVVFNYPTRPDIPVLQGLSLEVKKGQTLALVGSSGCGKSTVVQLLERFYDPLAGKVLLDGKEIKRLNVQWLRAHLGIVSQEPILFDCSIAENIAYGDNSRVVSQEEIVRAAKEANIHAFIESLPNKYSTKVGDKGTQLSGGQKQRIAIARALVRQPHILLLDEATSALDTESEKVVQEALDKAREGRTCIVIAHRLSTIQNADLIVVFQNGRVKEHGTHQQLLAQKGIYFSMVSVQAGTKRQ

Activity [1] | Activity [2] | Activity [3] | SMILES
inhibitor [+] | inhibitor [+] |  | OC(c1cc(C(F)(F)F)nc2c(C(F)(F)F)cccc12)C1CCCCN1 (stereo not drawn) [MEFLOQUINE]
 |  | substrate [+] | COC(=O)c1ccccc1-c1c2ccc(=N)cc-2oc2cc(N)ccc12.Cl [RHODAMINE123]
